These results are taken from patent US20210269434A1, “TRICYCLIC COMPOUNDS AS INHIBITORS OF KRAS” (Incyte Corporation, priority 2020, published 2021).

Molecules are shown by their SMILES.

The test system of assay [1] is MIA PaCa-2 (KRAS G12C) cells. Briefly: Cellular pERK HTRF assay (KRAS_G12C pERK). Format: cell-based, human. The settings on record: Homo sapiens, MIA PaCa-2, 4 hours incubation, read-out: G12C_pERK. The procedure, abridged:
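Phospho-ERK1/2 HTRF readout (665 and 620 nm) in lysed MIA PaCa-2 cells, antibodies incubated overnight at room temperature. Cells seeded the day before and treated with G12C compounds for 4 h at 37 °C; IC50 fitted to percent inhibition against log inhibitor concentration.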

The target in assay [2] is KRAS G12C (Homo sapiens, UniProt P01116, G12C). Briefly: GDP-GTP exchange assay (KRAS_G12C exchange). Format: biochemical. Conditions: bodipy-GDP loaded KRAS G12C 2.5 nM, SOS1 150 nM, GppNHp; 2 hours pre-incubation, 2 hours reaction; read-out: G12C_exchange. A digest of the protocol:
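Fluorescence exchange of bodipy-GDP for GppNHp, SOS1-driven, read at 485/520 nm; IC50 from four-parameter variable-slope fit. Both mutants used 2.5 nM final labelled protein and a 2 h compound pre-incubation. G12C reaction had 500 uM GppNHp and 150 nM SOS1 for 2 h; G12D ran 4 h.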

Chain of KRAS G12C (P01116 1-188 isoform P01116-2 G12C): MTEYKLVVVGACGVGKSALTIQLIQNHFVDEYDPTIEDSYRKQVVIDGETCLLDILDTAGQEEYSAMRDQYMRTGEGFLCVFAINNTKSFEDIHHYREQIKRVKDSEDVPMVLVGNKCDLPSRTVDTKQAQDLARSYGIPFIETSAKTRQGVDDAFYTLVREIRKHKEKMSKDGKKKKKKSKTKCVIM

As to `C=CC(=O)N1CC[C@H](n2cnc3c(N4CC(N(C)C)C4)nc4c(F)c(-c5cccc6c5OCCC6)c(Cl)cc4c32)C[C@H]1CC#N` [Example 65, 2-((2S,4S)-1-acryloyl-4-(8-chloro-7-(chroman-8-yl)-4-(3-(dimethylamino)-azetidin-1-yl)-6-fluoro-1H-imidazo[4,5-c]quinolin-1-yl)piperidin-2-yl)acetonitrile], the IC50 in assay [1] and in assay [2] was no more than 100 nM each time.

With `Cc1nccn1-c1nc2c(F)c(-c3ccccc3)c(Cl)cc2c2c1nnn2[C@H]1CCN(C(=O)/C=C/CN(C)C)[C@H](CC#N)C1` [Example 153, 2-((2S,4S)-4-(8-chloro-6-fluoro-4-(2-methyl-1H-imidazol-1-yl)-7-phenyl-1H-[1,2,3]triazolo[4,5-c]quinolin-1-yl)-1-((E)-4-(dimethylamino)but-2-enoyl)piperidin-2-yl)acetonitrile], the IC50 in assay [1] and in assay [2] was no more than 100 nM throughout.

As for `C=CC(=O)N1CC[C@H](n2nnc3c(N4CC(N(C)C)C4)nc4c(Cl)c(-c5cccc(C)c5Cl)c(Cl)cc4c32)C[C@H]1CC#N` [Example 282, 2-((2S,4S)-1-acryloyl-4-(6,8-dichloro-7-(2-chloro-3-methylphenyl)-4-(3-(dimethylamino)azetidin-1-yl)-1H-[1,2,3]triazolo[4,5-c]quinolin-1-yl)piperidin-2-yl)acetonitrile], the IC50 in assay [1] and in assay [2] was no more than 100 nM throughout.

As for `CC#CC(=O)N1CC[C@H](n2nnc3c(OC[C@@H]4CCCN4C)nc4c(F)c(-c5cccc(C#N)c5C)c(Cl)cc4c32)C[C@H]1CC#N` [Example 96, 3-(1-((2S,4S)-1-(but-2-ynoyl)-2-(cyanomethyl)piperidin-4-yl)-8-chloro-6-fluoro-4-(((S)-1-methylpyrrolidin-2-yl)methoxy)-1H-[1,2,3]triazolo[4,5-c]quinolin-7-yl)-2-methylbenzonitrile], the IC50 in assay [1] and in assay [2] was no more than 100 nM in each case.

Turning to `CC#CC(=O)N1CC[C@H](n2nnc3cnc4c(F)c(-c5c(C)c(Cl)cc6[nH]ncc56)c(Cl)cc4c32)C[C@H]1CC#N` [Example 188, 2-((2S,4S)-1-(but-2-ynoyl)-4-(8-chloro-7-(6-chloro-5-methyl-1H-indazol-4-yl)-6-fluoro-1H-[1,2,3]triazolo[4,5-c]quinolin-1-yl)piperidin-2-yl)acetonitrile], the IC50 in assay [1] and in assay [2] was no more than 100 nM throughout.

For the compound `C=CC(=O)N1CCC(n2cnc3c(OC[C@@H]4CCCN4C)nc4c(F)c(-c5cccc6c5CCC6)c(Cl)cc4c32)CC1CC#N` (mixture of isomers) [Example 44, 2-(1-acryloyl-4-(8-chloro-7-(2,3-dihydro-1H-inden-4-yl)-6-fluoro-4-(((S)-1-methylpyrrolidin-2-yl)methoxy)-1H-imidazo[4,5-c]quinolin-1-yl)piperidin-2-yl)acetonitrile], the IC50 in assay [1] and in assay [2] was no more than 100 nM each time.

In the case of `CC#CC(=O)N1CC[C@H](n2nnc3c(OC[C@@H]4CCCN4C)nc4c(F)c(-c5cccc(C)c5Cl)c(C)cc4c32)C[C@H]1CC#N` [Example 254, 2-((2S,4S)-1-(but-2-ynoyl)-4-(7-(2-chloro-3-methylphenyl)-6-fluoro-8-methyl-4-(((S)-1-methylpyrrolidin-2-yl)methoxy)-1H-[1,2,3]triazolo[4,5-c]quinolin-1-yl)piperidin-2-yl)acetonitrile], the IC50 in assay [1] and in assay [2] was no more than 100 nM throughout.

On to `CC#CC(=O)N1CC[C@H](n2nnc3c(N4CC(C)(N(C)C)C4)nc4c(F)c(-c5cccc(Cl)c5OC)c(C(F)(F)F)cc4c32)C[C@H]1CC#N` (single isomer, unassigned) [Example 243b], for which the IC50 in assay [1] and in assay [2] was no more than 100 nM throughout.
